Measured values reported in PubChem BioAssay AID1053170 (The Scripps Research Institute Molecular Screening Center, 2014).
Active and inactive are the calls of the source. How the calls were made is not given here.

molecular target: E3 ubiquitin-protein ligase UHRF1 (Homo sapiens) (UniProt Q96T88); experiment: UHRF1 methylated DNA binding inhibitors, late-stage follow-up, counter-screen for MBD2 inhibitor project, biochemical, TR-FRET, human UHRF1, dose response (AID 1053170)
Sequence (Q96T88 whole entry, looked up): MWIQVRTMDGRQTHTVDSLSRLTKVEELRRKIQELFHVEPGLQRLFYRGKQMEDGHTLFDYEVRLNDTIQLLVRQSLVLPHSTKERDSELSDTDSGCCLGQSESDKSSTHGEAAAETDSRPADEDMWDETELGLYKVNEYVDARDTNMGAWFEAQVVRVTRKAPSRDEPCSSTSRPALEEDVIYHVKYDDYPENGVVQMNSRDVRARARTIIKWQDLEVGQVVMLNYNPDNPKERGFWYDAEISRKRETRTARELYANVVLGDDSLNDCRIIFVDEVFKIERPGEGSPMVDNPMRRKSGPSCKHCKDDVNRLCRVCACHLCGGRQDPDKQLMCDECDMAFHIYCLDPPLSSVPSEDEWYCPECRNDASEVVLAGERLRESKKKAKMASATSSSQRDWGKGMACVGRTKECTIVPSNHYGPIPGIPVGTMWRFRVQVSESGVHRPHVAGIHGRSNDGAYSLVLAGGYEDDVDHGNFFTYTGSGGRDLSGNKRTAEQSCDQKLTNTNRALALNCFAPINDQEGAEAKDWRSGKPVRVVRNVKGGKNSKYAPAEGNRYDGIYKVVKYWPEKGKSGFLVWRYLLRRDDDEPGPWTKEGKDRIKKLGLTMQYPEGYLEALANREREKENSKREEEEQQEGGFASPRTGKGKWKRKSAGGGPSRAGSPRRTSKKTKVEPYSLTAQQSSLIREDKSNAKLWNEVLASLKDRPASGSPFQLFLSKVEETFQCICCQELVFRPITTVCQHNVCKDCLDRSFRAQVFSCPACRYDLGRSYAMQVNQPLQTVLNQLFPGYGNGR

Row | IC50 | Structure (SMILES)
1 | > 43.8 µM (inactive) | Cc1ccc(Cl)cc1N1CCN(S(=O)(=O)c2ccc3c(c2)NC(=O)C(C)C(=O)N3)CC1 (configuration not stated)
2 | > 43.8 µM (inactive) | O=C(Nc1ccc(OCc2ccccc2)cc1)c1ccccc1
3 | > 43.8 µM (inactive) | CC(C)n1nc(C(=O)Nc2nc3ccccc3[nH]2)c2ccccc2c1=O
4 | > 43.8 µM (inactive) | CC(C)C(=O)Nc1nnc(SCC(=O)NC2CCCC2)s1
5 | > 43.8 µM (inactive) | O=C(CSc1nc(-c2ccccc2)c(-c2ccccc2)o1)N1CCOCC1
6 | inactive | Cc1ccc(NCCN(C)C)c2c(=O)c3cc(O)ccc3sc12
7 | > 43.8 µM (inactive) | CSc1ccc(OC2CCCCC2NS(=O)(=O)c2ccc(Cl)cc2)cc1 (configuration not stated)
8 | > 43.8 µM (inactive) | CCOC(=O)c1oc2ccc(CNC(C)(C)C)c(Cl)c2c1C
9 | inactive | CN(C)CCNC(=O)c1cccc2[nH]c(-c3ccncc3)nc12
10 | > 43.8 µM (inactive) | CC(=O)N(c1ccccc1)c1nc(/C=C/C(=O)Nc2c(C)cc(C)cc2C)cs1
11 | > 43.8 µM (inactive) | CN(C)CCNc1ccc(CO)c2sc3ccc(O)cc3c(=O)c12
12 | inactive | Clc1ccc2c(c1)-c1ccccc1C1=NCCN12
13 | > 43.8 µM (inactive) | COc1ccccc1C(=O)COC(=O)c1ccc(N(C)C)cc1
14 | > 43.8 µM (inactive) | O=C(CSc1ccccn1)Nc1ccc(N2CCOCC2)cc1
15 | > 43.8 µM (inactive) | CCOC(=O)c1ccc(NC(=O)COc2ccc(CNCCO)cc2OCC)cc1
16 | inactive | c1ccc2c(c1)C1=NCCN1c1ccccc1-2

Row | IC50 | Structure (SMILES)
17 | > 43.8 µM (inactive) | CCc1cccc(OCC(=O)Nc2ccc(S(=O)(=O)Nc3ccccn3)cc2)c1
18 | > 43.8 µM (inactive) | COc1ccc(C(=O)N2CCC(C(=O)Nc3ccc(C)cc3)CC2)cc1
19 | inactive | Cc1c2cnn(CC(=O)Nc3c(F)c(F)cc(F)c3F)c(=O)c2c(C)n1Cc1ccccc1F
20 | > 43.8 µM (inactive) | CCCCn1c(NC(C)CC)nc2c1c(=O)[nH]c(=O)n2C (configuration not stated)
21 | inactive | CCOC(=O)c1cnc2c(ccc3ccccc32)c1NCCCN(C)C
22 | inactive | COc1ccc(C(=O)NCCN(C)C)c2nc3ccccc3cc12
23 | > 43.8 µM (inactive) | Cc1cc(C)n2nc(CC(=O)NCc3ccc(F)cc3)nc2n1
24 | > 43.8 µM (inactive) | COc1ccc(NC(=O)COC(=O)CCc2ccc(S(=O)(=O)N3CCOCC3)cc2)cc1Cl
25 | > 43.8 µM (inactive) | CCOc1ccc(S(=O)(=O)N2CCCC(C(=O)NCC3CCCO3)C2)cc1Cl (configuration not stated)
26 | > 43.8 µM (inactive) | COc1cccc2nc3c(C(=O)NCCN(C)C)cccc3cc12
27 | > 43.8 µM (inactive) | CSc1ccc(OC2CCCCC2NS(=O)(=O)c2ccccc2)cc1 (configuration not stated)
28 | > 43.8 µM (inactive) | COc1ccc(NC(=O)CN2CCN(c3ccccc3C)CC2)cc1
29 | > 43.8 µM (inactive) | COc1ccc2c(=O)c3c(=O)n(-c4ccccc4)c(-c4ccc(C)cc4)nc3oc2c1
30 | > 43.8 µM (inactive) | COc1ccc(NC(=O)Cn2cc(C(C)=O)c3ccccc32)cc1
31 | > 43.8 µM (inactive) | N=C1C(c2nc3ccccc3s2)=C(O)CN1NC(=O)c1c[nH]c2ccccc12
32 | inactive | Cc1cc2[nH]c3c4ccccc4nc(C)c3c2cc1C
